Measurements from US20230255970A1, “COMPOSITIONS AND METHODS FOR TREATING PROLIFERATIVE DISEASES” (The Broad Institute, Inc., priority 2020, published 2023).

Assays:
[1] = tested on: TRAF2 overexpression in U2OS cells; test: Cell Painting morphological profile matching to TRAF2 overexpression; assay type: cell-based, human
Description: (§1) Of these, analysis of the 220 constructs that were most closely representative of the annotated full-length transcripts was prioritized. […] Not all genes are likely to impact cellular morphology given the limitation of the experiment; using a single cell line at a single time point under a single set of conditions and stained with six fluorescent labels.
(§2) This standardization was done plate wise, based on the mean and standard deviation of the controls at profile level for the compound dataset. […] The signatures were then obtained by averaging the replicate profiles feature-wise. Pearson correlation was used on the aligned signatures of a gene and compound to score their connection.

[2] = tested on: YAP1 overexpression in U2OS cells; test: Cell Painting morphological profile matching to YAP1/TAZ overexpression signature; assay type: cell-based, human
Description: as §1
FIG. 2 provides an example characterization of matching the morphological signature of a gene query to the signature(s) of compounds in a library. Connections which show both positive and negative large correlations are considered as matches.
as §2

[3] = tested on: KP230 cells; test: Proliferation assay, KP230 cells; assay type: cell-based, mouse; conditions: 10 μM daily for 72 hours
Description: (§3) YAP1 cell culture and treatments: Eisinger lab: Murine KP230 cells, a Yap1-dependent cancer cell line, were derived from a tumor from the KP mouse model (Kras^G12/D; Trp53^f/fl), as described in Eisinger-Mathason, T. S. K. et al., Proc. Natl. Acad. Sci. U.S.A 112 (2015): E3402-11, which is hereby incorporated by reference in its entirety. STS-109 UPS cells were derived from a human UPS tumor and validated by Rebecca Gladdy, MD (Sinai Health System, Toronto, Ontario, Canada). TC32 cells were a gift from Patrick Grohar, MD, PhD (Children's Hospital of Philadelphia). HT-1080, HCT-116, and HEK293T cells were purchased from ATCC. KP230, HT-1080, and HEK-293T cells were grown in DMEM with 10% FBS, 1% L-glutamine, and 1% penicillin/streptomycin (P/S). STS-109 cells were cultured in DMEM with 20% FBS, 1% L-glutamine, and 1% P/S. TC32 cells were grown in RPMI with 10% FBS, 1% L-glutamine, and 1% P/S. HCT-116 cells were cultured in McCoy's 5A medium with 10% FBS and 1% P/S. All cells were confirmed to be negative for mycoplasma contamination and were maintained in an incubator at 37C with 5% CO2. For experimental purposes, cells were cultured for up to 20 passages before being discarded, and were grown to approximately 50% confluence to circumvent the effects of high cell density on Yap1 expression and activity. All cell lines in the Eisinger laboratory were treated with 10 μM of each inhibitor or an equivalent volume of DMSO every 24 hours for 3 days, except for STS-109 cells, which were treated daily for 8 days.
(§4) NB4A treatment: Cells were treated with 10 μM of each inhibitor or an equivalent volume of DMSO every 24 hours for 3-8 days, and counted with a hemocytometer with trypan blue exclusion daily (KP230, HT-1080, TC32, HCT-116), or every 2 days (STS-109).

[4] = biological target: PAX8 (Homo sapiens, UniProt Q06710); conditions: per PubChem; cited from earlier work
[5] = tested on: KP230 cells; test: Percent viability of KP230 cells; assay type: cell-based, mouse; conditions: 10 μM daily for 72 hours
Description: as §3, with “For experimental purposes, cells were cultured for up to 20 passages before being discarded, and were grown to approximately 50% confluence to circumvent the effects of high cell density on Yap1 expression and activity. All cell lines in the Eisinger laboratory were treated with 10 μM of each inhibitor or an equivalent volume of DMSO every 24 hours for 3 days, except for STS-109 cells, which were treated daily for 8 days.” left out
as §4

[6] = tested on: H9 human pluripotent stem cells; test: qPCR of YAP1, CTGF and CYR61 in H9 hPSCs; assay type: cell-based; conditions: 24 hrs
Method: H9 hPSCs (WiCell) were maintained on vitronectin (Thermo Fisher)-coated plates in Essential 8 (E8) medium. The cells were routinely passaged using 0.5 mM EDTA and treated with 5 μM Y-27632 dihydrochloride (Tocris) on the first day. For testing the effects of the small molecules, H9 hPSCs were seeded at 50K cells/cm^2 on vitronectin-coated plates in E8 medium supplemented with 5 μM Y-27632 dihydrochloride (day 0). On day 1, the medium was switched to E8 medium. On day 2, the medium was switched to E8 medium supplemented with the small molecules. Following overnight incubation, the cells were collected for subsequent analysis on day 3.
The RNA was extracted using TRIzol (Life Technologies) and Direct-zol™ RNA MiniPrep kit (Zymo Research) as per manufacturer instructions. The RNA was reverse transcribed using iScript cDNA synthesis kit (Bio-Rad). The qPCR was performed on CFX Connect (Bio-Rad) using iTaq Universal SYBR Green Supermix (Bio-Rad). GAPDH was used as a reference gene for normalization. The relative gene expression levels were determined using the ddCt method.

[7] = tested on: HEK293, HepG2, A549 cells; conditions: per PubChem, read-out: AC50, inhibition of cell proliferation; cited from earlier work
[8] = tested on: U2OS cells; test: Cell count in U2OS Cell Painting images; assay type: cell-based, human
Description: as §1, §2

[9] = Pearson correlation of Cell Painting signatures, U2OS cells

Chain of PAX8 (Q06710 whole entry, species assumed): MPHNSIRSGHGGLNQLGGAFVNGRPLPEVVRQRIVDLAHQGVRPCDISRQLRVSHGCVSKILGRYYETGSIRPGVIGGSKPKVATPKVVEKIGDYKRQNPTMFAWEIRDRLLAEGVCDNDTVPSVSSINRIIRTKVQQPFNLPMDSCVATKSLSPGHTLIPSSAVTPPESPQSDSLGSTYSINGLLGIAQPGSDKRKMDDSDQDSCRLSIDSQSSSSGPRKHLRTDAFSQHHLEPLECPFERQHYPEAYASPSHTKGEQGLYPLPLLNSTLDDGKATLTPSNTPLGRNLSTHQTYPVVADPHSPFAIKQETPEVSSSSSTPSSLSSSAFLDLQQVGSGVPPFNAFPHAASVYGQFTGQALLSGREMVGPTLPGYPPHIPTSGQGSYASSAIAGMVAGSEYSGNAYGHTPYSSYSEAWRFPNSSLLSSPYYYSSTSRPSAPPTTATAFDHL

With `CO[C@@H]1CN(C)C(=O)c2ccc(NC(=O)c3ccc(-c4ccccc4)cc3)cc2OC[C@H](C)NC[C@@H]1C` [BRD-K28862419, N-[(4S,7S,8S)-8-methoxy-4,7,10-trimethyl-11-oxo-2-oxa-5,10-diazabicyclo[10.4.0]hexadeca-1(12),13,15-trien-15-yl]-4-phenylbenzamide] the “Cell Painting profile correlation with TRAF2 overexpression” value [1] was 0.41, the “Corr. to TRAF2” value [1, 9] was 0.4068 and the “Cell Painting profile correlation with YAP1 overexpression” value [2] was −0.43. The “Corr. to YAP1 cluster” value [2, 9] was −0.4317, the proliferation [3] was “inhibited KP230 cell proliferation” and the PAX8 inhibition [4] was “inhibits PAX8”. The cell viability [5] was “modestly yet significantly reduced”, the “mRNA levels of hippo pathway members (YAP1, CTGF, CYR61)” value [6] was “did not dramatically impact” and the AC50 [7] was 5 to 18 µM. The “proliferation in the U2OS Cell Painting images” value [8] was −2.0 st dev and the “Avg. Cell Count z-score” value ([8]; U2OS Cell Painting) was −2.044.
